Source: PubChem BioAssay (NCI)
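Method: 48-hour compound exposure of cells in 96-well plates, five concentrations, linear interpolation of endpoints. Abbreviation: GI50, concentration required for 50% inhibition of growth. TGI marks complete inhibition of growth.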

Tests used:
Assay in all cases: growth of human tumour cells (NCI), 48 h
CCRF-CEM leukemia = system: CCRF-CEM leukemia
EKVX NSCLC = system: EKVX NSCLC
IGROV1 ovarian = system: IGROV1 ovarian
K-562 leukemia = system: K-562 leukemia
MALME-3M melanoma = system: MALME-3M melanoma
NCI-H226 lung = system: NCI-H226 lung
SK-MEL-2 melanoma = system: SK-MEL-2 melanoma
SNB-75 CNS = system: SNB-75 CNS

SMILES	TGI (CCRF-CEM leukemia)	TGI (EKVX NSCLC)	TGI (IGROV1 ovarian)	TGI (K-562 leukemia)	TGI (MALME-3M melanoma)	TGI (NCI-H226 lung)	TGI (SK-MEL-2 melanoma)	TGI (SNB-75 CNS)	GI50 (CCRF-CEM leukemia)	GI50 (IGROV1 ovarian)	GI50 (SK-MEL-2 melanoma)
CCOc1cc2c(cc1O)C(O)C[C@@H]1[C@@H]2CC[C@]2(C)[C@@H](O)CC[C@@H]12 (stereo partly specified)	> 100 µM	> 100 µM	> 100 µM	> 36.4 µM	> 100 µM	> 100 µM	> 100 µM	> 100 µM			
COC(=O)Cn1cnc2c(Cl)nc(Nc3ccccc3)nc21	96.7 µM	88 µM	56.1 µM	> 100 µM	> 100 µM	> 100 µM	48.8 µM	> 100 µM			
NC(=S)NC/C=C/Cl	> 100 µM	> 100 µM	> 100 µM	> 100 µM	> 100 µM	> 100 µM	> 100 µM	> 100 µM			
Cc1ccccc1NC(=O)CC(=O)NNC(Sc1ccccc1)c1cc(N=Nc2ccc(Br)cc2)ccc1O (stereo unspecified)	> 10 µM	> 10 µM	> 10 µM	7.56 µM	> 10 µM	> 10 µM	> 10 µM	> 10 µM			
O=C1NC(Cc2ccc(O)cc2)C(=O)NC1Cc1ccc(O)cc1 (stereo unspecified)	> 100 µM	> 100 µM	> 100 µM	> 100 µM	> 100 µM	> 100 µM	> 100 µM	> 100 µM			
CCN(CC)C(=O)Cn1c2c(c3ccccc31)CCCC2	> 100 µM	> 100 µM	> 100 µM	> 100 µM	> 100 µM		> 100 µM				
Cc1ccc(S(=O)(=O)NC(=O)C2=C3SCCN3C(=O)N(S(=O)(=O)c3ccc(C)cc3)C2c2ccccc2)cc1 (stereo unspecified)	60.5 µM	> 100 µM	> 100 µM	> 100 µM	> 100 µM	> 100 µM	> 100 µM	> 100 µM			
Cc1c2cccc-2ccc2c3ccccc3n(C(=O)c3ccc(Cl)cc3)c12	> 100 µM	> 100 µM	> 100 µM	> 100 µM	> 100 µM	> 100 µM	> 100 µM	> 100 µM			
CC(=O)OC[C@H]1On2nnnc2[C@H](OC(C)=O)[C@@H](OC(C)=O)[C@@H]1OC(C)=O	> 100 µM	> 100 µM	> 100 µM	> 100 µM	> 100 µM	> 100 µM	> 100 µM	> 100 µM			
O=C(N=Nc1ccccc1Cl)NNc1ccccc1Cl	53.6 µM		43.2 µM	73.1 µM	> 100 µM	> 100 µM	67.4 µM	> 100 µM			
CCN(CC)C(=O)CCN1CC1	> 10 µM	> 10 µM	> 10 µM	> 10 µM	> 10 µM	> 10 µM	> 10 µM	> 10 µM			
CCOC(=O)CCC(C(=O)OCC)n1nnc2cc(Nc3c(C)[n+]([O-])c4cc(F)c(OCC)cc4[n+]3[O-])ccc21 (stereo unspecified)	> 100 µM	> 100 µM	> 100 µM	> 100 µM	> 100 µM	> 100 µM	> 100 µM	57.2 µM			
CC(C)Oc1cccc(N2C(Nc3ccccc3)=Nc3ccncc3S2(=O)=O)c1	62.4 µM	> 100 µM	87.6 µM	> 100 µM	63.7 µM	83.2 µM	> 100 µM	> 100 µM			
COc1cccc(C2c3cc4c(cc3OC(Nc3ccccc3)C2C)OCO4)c1O (stereo unspecified)	16.6 µM	> 55.9 µM	35.5 µM	15 µM	35.3 µM	33.2 µM	51.9 µM	26.8 µM			
COc1ccc(C(=O)/C=C/c2cc(-c3cc(OC)c(OC)c(OC)c3)n[nH]2)cc1	5.85 µM		4.81 µM				19.6 µM		1.42 µM	2.21 µM	4.14 µM
Cn1c(=O)sc2cc(C(=S)N3CCCCC3)ccc21	43 µM	> 100 µM	> 100 µM	> 100 µM	55.4 µM	> 100 µM	> 100 µM	86.5 µM			
N#Cc1c(N)nc2c3c1NC(=O)C(C(N)=O)C3c1ccccc1O2 (stereo unspecified)	> 100 µM	> 100 µM	79.8 µM	> 100 µM	> 100 µM	> 100 µM	> 100 µM	> 100 µM			
CC(CNC(N)=O)NC(N)=O (stereo unspecified)	> 100 µM	> 100 µM	> 100 µM	> 100 µM	> 100 µM	> 100 µM	> 100 µM	> 100 µM			
NC(N)=NC1C(O)C(O)C(O)C(N=C(N)N)C1O (stereo unspecified)	> 100 µM	> 100 µM	> 100 µM	> 100 µM	> 100 µM		> 100 µM	> 100 µM			
COc1ccccc1NC(=O)CC(=O)NN	> 100 µM	> 100 µM	> 100 µM	> 100 µM	> 100 µM	> 100 µM	> 100 µM	> 100 µM			
O=C(c1ccc(Cl)cc1)N1CCN=C1c1cc2ccccc2c2ccccc12	81.1 µM	28 µM	29.2 µM	95.8 µM	32.5 µM		31.4 µM	25.7 µM			
S=C1SC(=Nc2ccccc2)C(=Nc2ccccc2)N1c1ccc2ccccc2c1	> 100 µM		> 100 µM	> 100 µM	> 100 µM	> 100 µM	> 100 µM	> 100 µM			
CCOC(=O)c1cc(Br)c(-c2onc(C)c2Br)[nH]1	> 100 µM	> 100 µM	> 100 µM	> 100 µM	> 100 µM	> 100 µM	> 100 µM	> 100 µM			
COc1nc(C#CC2CCCCC2)nc(OC)n1	11.7 µM	32.6 µM	14 µM	28.4 µM	6.49 µM		13.1 µM	27.6 µM			
CCCCCCCCOc1ccc(/C=C/C2=[N+](CCO)CCO2)cc1	6.43 µM	14.9 µM	13.8 µM	4.87 µM	12.2 µM	12.3 µM	7.26 µM	9.2 µM			
